Test results reported in patent publication US9169260B2 (MERCK SHARP & DOHME CORP., priority 2011, dated 2015).
Read-outs that look alike come from different tables or passages of the source.

Target: GST tagged IRAK-4 (Homo sapiens (Human), UniProt Q9NWZ3)
Assay: IRAK-4 Kinase Assay (IMAP fluorescence polarization)
Assay type: biochemical
Protocol: The kinase activity of IRAK-4 is determined by its ability to catalyze the phosphorylation of a fluorescent polypeptide substrate. The extent of phosphorylation is measured using the IMAP technology (Molecular Devices) where the phosphorylated fluorescent substrate binds to the large M(III)-based nanoparticles which reduces the rotational speed of the substrate and thus increases its fluorescent polarization (FP).
20 μl reaction mixture contains 10 mM TriHCl, pH 7.2, 0.5 nM GST tagged IRAK-4 (SignalChem), 100 nM fluorescent peptide substrate (RP7030, Molecular Devices), 100 μM ATP, 1 mM DTT, 1 mM MgCl2, and 0.01% Tween 20. The reaction is initiated by the addition of ATP. After incubation for 30 minutes at 25° C., 60 μl of Progressive IMAP Reagent (Molecular Devices) is added to stop the reaction. Change in RP7030's FP is determined by a FP reader (Analyst HT, LH, BioSystems).

[1] = 100 μM ATP, 30 minutes at 25° C.
[2] = 100 μM ATP, 30 minutes at 25° C., μM

Chain of GST tagged IRAK-4 (Q9NWZ3 whole entry): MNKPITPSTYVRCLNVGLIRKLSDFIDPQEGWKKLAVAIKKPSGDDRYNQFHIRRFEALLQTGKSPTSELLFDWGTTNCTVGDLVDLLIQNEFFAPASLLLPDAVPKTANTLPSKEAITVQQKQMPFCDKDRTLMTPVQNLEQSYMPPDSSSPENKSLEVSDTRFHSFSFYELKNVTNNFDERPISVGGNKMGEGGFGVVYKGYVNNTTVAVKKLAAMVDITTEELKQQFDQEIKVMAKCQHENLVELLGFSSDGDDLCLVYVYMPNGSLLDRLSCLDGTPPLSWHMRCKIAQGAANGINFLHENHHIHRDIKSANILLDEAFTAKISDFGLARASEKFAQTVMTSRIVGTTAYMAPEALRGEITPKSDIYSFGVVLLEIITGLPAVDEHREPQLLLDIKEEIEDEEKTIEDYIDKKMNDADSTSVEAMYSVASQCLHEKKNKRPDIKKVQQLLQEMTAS

IC50 [1] | IC50 [2] | SMILES | further results
< 0.1 µM | – | Cc1ccc(-n2nc(C3CCN(C4CCC(NS(C)(=O)=O)CC4)CC3)cc2NC(=O)c2cnn3cccnc23)cc1 (stereo not drawn) [Example 252, N-[1-(4-methylphenyl)-3-(1-{4-[(methylsulfonyl)amino]cyclohexyl}piperidin-4-yl)-1H-pyrazol-5-yl]pyrazolo[1,5-a]pyrimidine-3-carboxamide] | –
– | < 1 µM | COc1ccc(-c2cc(NC(=O)c3cnn4cccnc34)n(-c3ccc(C)cc3)n2)cn1 [Example 124, N-(3-(6-methoxypyridin-3-yl)-1-(p-tolyl)-1H-pyrazol-5-yl)pyrazolo[1,5-a]pyrimidine-3-carboxamide] | –
< 0.1 µM | – | Cc1ccc(-n2nc(N3CCN(S(C)(=O)=O)CC3)cc2NC(=O)c2cnn3cccnc23)nc1 [Example 199, N-(1-(5-methylpyridin-2-yl)-3-(4-(methylsulfonyl)piperazin-1-yl)-1H-pyrazol-5-yl)pyrazolo[1,5-a]pyrimidine-3-carboxamide] | –
– | < 1 µM | Cc1ccc(-n2nc(C3CCN(C4CCC(F)(F)CC4)CC3)cc2NC(=O)c2cnn3cccnc23)cc1 [Example 259, N-{3-[1-(4,4-difluorocyclohexyl)piperidin-4-yl]-1-(4-methylphenyl)-1H-pyrazol-5-yl}pyrazolo[1,5-a]pyrimidine-3-carboxamide] | –
– | < 1 µM | Cc1ccc(-n2nc(C3CCNCC3)cc2NC(=O)c2cnn3cccnc23)c(Cl)c1 [Example 65, N-(1-(2-chloro-4-methylphenyl)-3-(piperidin-4-yl)-1H-pyrazol-5-yl)pyrazolo[1,5-a]pyrimidine-3-carboxamide] | –
– | < 1 µM | Cc1ccc(-n2nc(C3CN(Cc4ccccn4)C3)cc2NC(=O)c2cnn3cccnc23)cc1 [Example 308, N-{1-(4-methylphenyl)-3-[1-(pyridin-2-ylmethyl)azetidin-3-yl]-1H-pyrazol-5-yl}pyrazolo[1,5-a]pyrimidine-3-carboxamide] | –
< 0.1 µM | – | CCOC(=O)N1CCC(N2CCC(c3cc(NC(=O)c4cnn5cccnc45)n(-c4ccc(C)cn4)n3)CC2)CC1 [Example 276, ethyl 4-{1-(5-methylpyridin-2-yl)-5-[(pyrazolo[1,5-a]pyrimidin-3-ylcarbonyl)amino]-1H-pyrazol-3-yl}-1,4′-bipiperidine-1′-carboxylate] | –
– | < 1 µM | Cc1ccc(-n2nc(-c3ccc(S(=O)(=O)C(C)C)cc3)cc2NC(=O)c2cnn3cccnc23)cc1 [Example 341, N-[3-{4-[(1-methylethyl)sulfonyl]phenyl}-1-(4-methylphenyl)-1H-pyrazol-5-yl]pyrazolo[1,5-a]pyrimidine-3-carboxamide] | –
< 0.1 µM | – | Cc1ccc(-n2nc(C3CCN(Cc4cncs4)CC3)cc2NC(=O)c2cnn3cccnc23)cc1 [Example 229, N-{1-(4-methylphenyl)-3-[1-(1,3-thiazol-5-ylmethyl)piperidin-4-yl]-1H-pyrazol-5-yl}pyrazolo[1,5-a]pyrimidine-3-carboxamide] | –
– | < 1 µM | Cc1ccc(-n2nc(C3CCN(C)CC3)cc2NC(=O)c2cnn3cccnc23)cc1 [Example 36, N-(3-(1-methylpiperidin-4-yl)-1-(p-tolyl)-1H-pyrazol-5-yl)pyrazolo[1,5-a]pyrimidine-3-carboxamide] | –
< 0.1 µM | – | COc1ccc(-n2nc(C3CCN(C(C)C)CC3)cc2NC(=O)c2cnn3cccnc23)c(F)c1 [Example 62, N-(1-(2-fluoro-4-methoxyphenyl)-3-(1-isopropylpiperidin-4-yl)-1H-pyrazol-5-yl)pyrazolo[1,5-a]pyrimidine-3-carboxamide] | –
< 0.1 µM | – | Cc1ccc(-n2nc(C3CCN(S(C)(=O)=O)CC3)cc2NC(=O)c2cnn3cc(C(N)=O)cnc23)cc1 [Example 120, N3-(3-(1-(methylsulfonyl)piperidin-4-yl)-1-(p-tolyl)-1H-pyrazol-5-yl)pyrazolo[1,5-a]pyrimidine-3,6-dicarboxamide] | –
– | > 1 µM | Cc1ccc(-n2nc(C3CC3)cc2NC(=O)c2cnn3cccnc23)nc1 [Example 180, N-(3-cyclopropyl-1-(5-methylpyridin-2-yl)-1H-pyrazol-5-yl)pyrazolo[1,5-a]pyrimidine-3-carboxamide] | –
– | < 1 µM | Cc1ccc(-n2nc(C3CCN(C(C)c4nccs4)CC3)cc2NC(=O)c2cnn3cccnc23)cc1 (stereo not drawn) [Example 217, N-[1-(4-methylphenyl)-3-{1-[1-(1,3-thiazol-2-yl)ethyl]piperidin-4-yl}-1H-pyrazol-5-yl]pyrazolo[1,5-a]pyrimidine-3-carboxamide] | –
– | > 1 µM | Cc1ccc(-n2nc(-c3cncc(F)c3)cc2NC(=O)c2cnn3cccnc23)cc1 [Example 136, N-(3-(5-fluoropyridin-3-yl)-1-(p-tolyl)-1H-pyrazol-5-yl)pyrazolo[1,5-a]pyrimidine-3-carboxamide] | –
< 0.1 µM | – | COc1ccc(-n2nc(C3CCN(S(C)(=O)=O)CC3)cc2NC(=O)c2cnn3cccnc23)cc1 [Example 16, N-(1-(4-methoxyphenyl)-3-(1-(methylsulfonyl)piperidin-4-yl)-1H-pyrazol-5-yl)pyrazolo[1,5-a]pyrimidine-3-carboxamide] | –
– | – | Cc1ccc(-n2nc(C3CCN(S(C)(=O)=O)CC3)cc2NC(=O)c2cnn3cccnc23)cn1 [Example 168, N-(1-(6-methylpyridin-3-yl)-3-(1-(methylsulfonyl)piperidin-4-yl)-1H-pyrazol-5-yl)pyrazolo[1,5-a]pyrimidine-3-carboxamide] | IC50: < 1 µM
– | < 1 µM | Cc1ccc(-n2nc(C3CCCN(S(C)(=O)=O)C3)cc2NC(=O)c2cnn3cccnc23)cc1 (stereo not drawn) [Example 43, N-(3-(1-(methylsulfonyl)piperidin-3-yl)-1-(p-tolyl)-1H-pyrazol-5-yl)pyrazolo[1,5-a]pyrimidine-3-carboxamide] | –
< 0.1 µM | – | Cc1ccc(-n2nc(-c3ccc(CO)nc3)cc2NC(=O)c2cnn3cccnc23)cc1 [Example 330, N-{3-[6-(hydroxymethyl)pyridin-3-yl]-1-(4-methylphenyl)-1H-pyrazol-5-yl}pyrazolo[1,5-a]pyrimidine-3-carboxamide] | –
– | < 1 µM | COc1ccc(-n2nc(C3CCN(C(=O)C4CC4)CC3)cc2NC(=O)c2cnn3cccnc23)cc1 [Example 33, N-(3-(1-(cyclopropanecarbonyl)piperidin-4-yl)-1-(4-methoxyphenyl)-1H-pyrazol-5-yl)pyrazolo[1,5-a]pyrimidine-3-carboxamide] | –
< 0.1 µM | – | Cc1ccc(-n2nc(C3CCN(C4CCC5(CCC(=O)N5)CC4)CC3)cc2NC(=O)c2cnn3cccnc23)cc1 (stereo not drawn) [Example 255, N-{1-(4-methylphenyl)-3-[1-(2-oxo-1-azaspiro[4.5]dec-8-yl)piperidin-4-yl]-1H-pyrazol-5-yl}pyrazolo[1,5-a]pyrimidine-3-carboxamide] | –
– | < 1 µM | Cc1ccc(-n2nc(C3CCN(C)CC3)cc2NC(=O)c2cnn3cc(Br)cnc23)cc1 [Example 111, 6-bromo-N-(3-(1-methylpiperidin-4-yl)-1-(p-tolyl)-1H-pyrazol-5-yl)pyrazolo[1,5-a]pyrimidine-3-carboxamide] | –
– | < 1 µM | Cc1cccc(-n2nc(C3CCNCC3)cc2NC(=O)c2cnn3cccnc23)c1 [Example 15, N-(3-(piperidin-4-yl)-1-(m-tolyl)-1H-pyrazol-5-yl)pyrazolo[1,5-a]pyrimidine-3-carboxamide] | –
< 0.1 µM | – | COc1ccc(-c2cc(NC(=O)c3cnn4cccnc34)n(-c3ccc(C)cc3)n2)cc1OC [Example 133, N-(3-(3,4-dimethoxyphenyl)-1-(p-tolyl)-1H-pyrazol-5-yl)pyrazolo[1,5-a]pyrimidine-3-carboxamide] | –
